Converted amounts (≈) assume the structure as drawn. “And” between values parts separate entries of the source, which are not always exact repeats. Equal entries are not always repeated. “Also recorded” adds a separate entry of the source. Where two headings read alike, the source gives them in different places. Marks after values point to notes of the source that are not given here. Peptide text beside a SMILES is read from it.
Key:
[1] = tested on: clinical isolates of L. monocytogenes; type: cell-based, Listeria monocytogenes
Procedure: (§1) The MICs of conjugated PNAs, free PNA, CPPs and untreated control against L. monocytogenes were determined using the broth microdilution method according to the Clinical and Laboratory Standards Institute (CLSI) guidelines with the following modifications. Briefly, low binding clear microcentrifuge tubes (USA scientific, Inc. Ocala, FL) were used in triplicates for each reaction instead of traditional 96-well plates. […] After a 16 hour incubation period (of test agent with bacteria), the number of viable bacteria was enumerated by serial dilution and counting on TSA plates. The MICs were repeated at least twice.

[2] = tested on: L. monocytogenes J0161 in infected C. elegans; assay: C. elegans infection model; details: 18 hours treatment; for Log CFUs/worm: 10 worms in triplicates; for Log CFUs reduction: versus water
L. monocytogenes F4244 [3] = assay: Time kill assay; type: cell-based, Listeria monocytogenes; details: 12 hours; for time to complete eradication of Listeria: 32 μM PNA, 37 °C, samples every 2 hours, ~10^5 CFU/ml; for bactericidal or bacteriostatic activity: L. monocytogenes, time kill at 32 μM
Procedure: L. monocytogenes F4244 in logarithmic growth phase was diluted to ~10^5 CFU/ml and incubated with 32 μM of the five PNAs (in triplicates) at 37 °C for 12 hours. Samples were collected every two hours, serially diluted, and plated onto TSA plates. Plates were then incubated wat 37 °C for 24 hours before viable CFUs were determined.
Samples were collected every 20 minutes and processed as above.

L. monocytogenes F4244 [4] = assay: Concentration-dependent bacterial log reduction in pure culture; type: cell-based, Listeria monocytogenes; details: for Log CFU/ml: pure culture F4244, 16 hour incubation; for Log CFU reduction: relative to control, pure culture F4244
Procedure: as §1

[5] = tested on: L. monocytogenes F4244 inside infected J774A.1 cells; type: cell-based; details: 4 hours; for Log CFU/ml: intracellular F4244 in J774A.1; for Log CFU reduction: intracellular F4244 in J774A.1, versus control
[6] = tested on: mitochondrial biogenesis in J774A.1 cells; assay: Mitobiogenesis assay (In-Cell ELISA, COX-I/SDH-A); details: three days, tested at 0.1, 1, 10 and 20 μM, COX-I/SDH-A ratio
Procedure: To measure the effect of PNA on the mitochondrial biogenesis, In-Cell ELISA Kit (MitoSciences Inc., Eugene, OR, USA) was used as per the manufacturer’s instructions[54][55]. Briefly, J774A.1 cells were seeded (approximately 40,000 cells per well) in 96-well plates and allowed to adhere. […] Cells were allowed to grow for approximately 3 days. Media were removed and cells were washed with PBS, then fixed with 4% paraformaldehyde. After fixing, cells were washed with PBS and permeabilization and blocking processes were done according to the manufacturer’s instructions. Primary antibodies to detect the levels of two proteins (subunit I of Complex IV (COX-I), that is mitochondrial DNA (mtDNA)-encoded), and the 70 kDa subunit of Complex II (SDH-A), a nuclear DNA (nDNA)-encoded were added and incubated for overnight at 4 °C. After incubation, cells were washed with PBS and secondary antibodies were added and incubated at room temperature for one hour. After washing, the expression of SDH-A and COX-1 were measured at 405 nm and 600 nm wavelength, respectively. The ratio between COX-I and SDH-A was calculated and the percent of inhibition of mitochondrial biogenesis was determined.

L. monocytogenes F4244 [7] = assay: Time kill assay; type: cell-based, Listeria monocytogenes; details: 8 μM PNA, 37 °C, samples every 20 minutes, inoculum 2.4 × 10^5 CFU/ml
[8] = concentration required to inhibit 50% of L. monocytogenes isolates (six isolates)
[9] = strain ATCC 13932, broth microdilution in low binding tubes, triplicates, 16 hour incubation
[10] = strain ATCC 19111, broth microdilution in low binding tubes, triplicates, 16 hour incubation
[11] = strain ATCC 19112, broth microdilution in low binding tubes, triplicates, 16 hour incubation
[12] = strain ATCC 19114, broth microdilution in low binding tubes, triplicates, 16 hour incubation
[13] = strain F4244, broth microdilution in low binding tubes, triplicates, 16 hour incubation, no turbidity
[14] = strain J0161, broth microdilution in low binding tubes, triplicates, 16 hour incubation

| Molecule | MIC50 [1, 8] [µM] | MIC [1, 9] [µM] | MIC [1, 10] [µM] | MIC [1, 11] [µM] | MIC [1, 12] [µM] | MIC [1, 13] [µM] | MIC [1, 14] [µM] | Log CFUs/worm ([2]; 16 µM) [Log CFUs/worm] | Log CFUs reduction ([2]; 16 µM) [Log CFUs] | Log CFUs/worm ([2]; 32 µM) [Log CFUs/worm] | Log CFUs reduction ([2]; 32 µM) [Log CFUs] | bactericidal or bacteriostatic activity (L. monocytogenes F4244 [3]) | Log CFU/ml (L. monocytogenes F4244 [4]; 1 µM PNA) [Log CFU/ml] | Log CFU reduction (L. monocytogenes F4244 [4]; 1 µM PNA) [Log CFU] | Log CFU/ml (L. monocytogenes F4244 [4]; 2 µM PNA) [Log CFU/ml] | Log CFU reduction (L. monocytogenes F4244 [4]; 2 µM PNA) [Log CFU] | Log CFU/ml (L. monocytogenes F4244 [4]; 4 µM PNA) [Log CFU/ml] | Log CFU reduction (L. monocytogenes F4244 [4]; 4 µM PNA) [Log CFU] | Log CFU/ml (L. monocytogenes F4244 [4]; 8 µM PNA) | Log CFU reduction (L. monocytogenes F4244 [4]; 8 µM PNA) | other results |
| --- | --- | --- | --- | --- | --- | --- | --- | --- | --- | --- | --- | --- | --- | --- | --- | --- | --- | --- | --- | --- | --- |
| RFRRFRRFRRFRXB [(RFR)4XB, cell penetrating peptide (RFR)4XB, reference compound] | >128 | >128 | 32 | >128 | 128 | >128 | >128 |  |  |  |  |  |  |  |  |  |  |  |  |  | MIC ([1]; strain F4244, broth microdilution in low binding tubes, triplicates, 16 hour incubation, no turbidity, listed as RFR): no growth inhibition |
| RXRRXRRXRRXRXB [(RXR)4XB, cell penetrating peptide (RXR)4XB, reference compound] | >128 | >128 | >128 | >128 | >128 | >128 | >128 |  |  |  |  |  |  |  |  |  |  |  |  |  | MIC ([1]; strain F4244, broth microdilution in low binding tubes, triplicates, 16 hour incubation, no turbidity, listed as RXR): no growth inhibition |
| NCCCC[C@H](NC(=O)[C@H](Cc1ccccc1)NC(=O)[C@H](Cc1ccccc1)NC(=O)[C@H](CCCCN)NC(=O)[C@H](Cc1ccccc1)NC(=O)[C@H](Cc1ccccc1)NC(=O)[C@H](CCCCN)NC(=O)[C@H](Cc1ccccc1)NC(=O)[C@H](Cc1ccccc1)NC(=O)[C@@H](N)CCCCN)C(N)=O [KFF, reference compound] (H-KFFKFFKFFK-NH2) |  |  |  |  |  |  |  |  |  |  |  |  |  |  |  |  |  |  |  |  | MIC50 ([1]; clinical isolates of, 16 h): 64 µM (≈ 90.4 µg/mL) |
| RQIKIWFQNRRMKWKK-O-cgatcattcaaa-NH2 [PANT, anti-rpoA PNA covalently conjugated to the antennapedia CPP] | 32 | 32 | 32 | 32 | 1 | 16 | 32 | 3.88±0.15 | 0.27 | 2.49±0.48 | 1.89 | bactericidal activity | 9.30±0.06 | 0.095 | 9.27±0.21 | 0.119 | 9.14±0.05 | 0.25 | 8.09±0.95 Log CFU/ml | 1.3 Log CFU and 1.30 Log CFU | time to complete eradication of Listeria (L. monocytogenes F4244 [3]): 10 h; Log CFU/ml (L. monocytogenes F4244 [4]; 16 µM PNA): 6.73±0.48 Log CFU/ml; Log CFU reduction (L. monocytogenes F4244 [4]; 16 µM PNA): 2.66 Log CFU; Log CFU/ml (L. monocytogenes F4244 [4]; 32 µM PNA): bacterial clearance; also recorded: Cleared; Log CFU reduction (L. monocytogenes F4244 [4]; 32 µM PNA): 9.39 Log CFU; Log CFU/ml ([5]; 2 μM): 6.82 ± 0.02 Log CFU/ml; Log CFU reduction ([5]; 2 μM): −0.09 Log CFU; Log CFU/ml ([5]; 4 μM): 6.67 ± 0.05 Log CFU/ml; Log CFU reduction ([5]; 4 μM): 0.06 Log CFU; Log CFU/ml ([5]; 8 μM): 4.65 ± 0.34 Log CFU/ml; Log CFU reduction ([5]; 8 μM): 2.07 Log CFU |
| N=C(N)NCCC[C@H](NC(=O)CN)C(=O)N[C@@H](CCCCN)C(=O)N[C@@H](CCCCN)C(=O)N[C@@H](CCCCN)C(=O)N[C@@H](CCCNC(=N)N)C(=O)N[C@@H](CCCNC(=N)N)C(=O)N[C@@H](CCC(N)=O)C(=O)N[C@@H](CCCNC(=N)N)C(=O)N[C@@H](CCCNC(=N)N)C(=O)N[C@@H](CCCNC(=N)N)C(=O)N[C@@H](Cc1ccc(O)cc1)C(=O)N[C@@H](CCCCN)C(=O)O [TAT, reference compound] (H-GRKKKRRQRRRYK-OH) |  |  |  |  |  |  |  |  |  |  |  |  |  |  |  |  |  |  |  |  | MIC ([1]; clinical isolates of, 16 h): >128 µM; MIC50 ([1]; clinical isolates of, 16 h): >128 µM |
| CC(=O)NC[C@H]1CN(c2ccc(N3CCOCC3)c(F)c2)C(=O)O1 [Linezolid, linezolid] |  |  |  |  |  |  |  |  |  |  |  |  |  |  |  |  |  |  |  |  | inhibition of mitochondrial protein synthesis (mitobiogenesis) [6]: 65% |
| RFRRFRRFRRFRXB-O-cgatcattcaaa-NH2 [PRFR, anti-rpoA PNA covalently conjugated to the (RFR)4XB CPP] | 4 | 4 | 8 | 4 | 1 | 2 | 16 | 2.85±0.60 | 1.3 | 1.86±0.26 | 2.52 | bactericidal activity | 9.26±0.09 | 0.13 | 7.48±0.69 | 1.91 | 6.10±0.63 | 3.29 | bacterial clearance; also recorded: Cleared | 9.39 Log CFU | time to complete eradication of Listeria (L. monocytogenes F4244 [3]): ≤ 2 h; Log CFU/ml (L. monocytogenes F4244 [4]; 16 µM PNA): Cleared; Log CFU reduction (L. monocytogenes F4244 [4]; 16 µM PNA): 9.39 Log CFU; Log CFU/ml (L. monocytogenes F4244 [4]; 32 µM PNA): Cleared; Log CFU reduction (L. monocytogenes F4244 [4]; 32 µM PNA): 9.39 Log CFU; time to complete elimination of starting inoculum (L. monocytogenes F4244 [7]): ≤ 20 min; Log CFU/ml ([5]; 2 μM): 5.89 ± 0.65 Log CFU/ml; Log CFU reduction ([5]; 2 μM): 0.84 Log CFU; Log CFU/ml ([5]; 4 μM): 5.10 ± 0.28 Log CFU/ml; Log CFU reduction ([5]; 4 μM): 1.63* Log CFU; Log CFU/ml ([5]; 8 μM): 4.29 ± 0.04 Log CFU/ml; Log CFU reduction ([5]; 8 μM): 2.43* Log CFU |
| CNC(C)C1CCC(N)C(OC2C(N)CC(N)C(OC3OCC(C)(O)C(NC)C3O)C2O)O1 (stereo not shown) [Gentamicin, gentamicin, reference compound] |  |  |  |  |  |  |  | 3.52±0.55 | 0.63 | 2.18±0.6 | 2.2 |  |  |  |  |  |  |  |  |  |  |
| KFFKFFKFFK-O-cgatcattcaaa-NH2 [PKFF, anti-rpoA PNA covalently conjugated to the (KFF)3K CPP] | 32 | 32 | 32 | 32 | 2 | 32 | 32 | 3.43±0.2 | 0.71 | 3.35±0.25 | 1.03 | bacteriostatic effect | 9.40±0.08 | -0.009 | 9.35±0.05 | 0.041 | 9.26±0.07 | 0.129 | 8.93±0.35 Log CFU/ml | 0.46 Log CFU | Log CFU/ml (L. monocytogenes F4244 [4]; 16 µM PNA): 8.40±0.16 Log CFU/ml; Log CFU reduction (L. monocytogenes F4244 [4]; 16 µM PNA): 0.98 Log CFU; Log CFU/ml (L. monocytogenes F4244 [4]; 32 µM PNA): 6.63±0.59 Log CFU/ml; Log CFU reduction (L. monocytogenes F4244 [4]; 32 µM PNA): 2.78 Log CFU; Log CFU/ml ([5]; 2 μM): 6.77 ± 0.03 Log CFU/ml; Log CFU reduction ([5]; 2 μM): −0.031 Log CFU; Log CFU/ml ([5]; 4 μM): 6.76 ± 0.08 Log CFU/ml; Log CFU reduction ([5]; 4 μM): −0.029 Log CFU; Log CFU/ml ([5]; 8 μM): 6.12 ± 0.32 Log CFU/ml; Log CFU reduction ([5]; 8 μM): 0.6 Log CFU |
| CC1(C)S[C@@H]2[C@H](NC(=O)[C@H](N)c3ccccc3)C(=O)N2[C@H]1C(=O)O [ampicillin] |  |  |  |  |  |  |  |  |  |  |  |  |  |  |  |  |  |  |  |  | inhibition of mitochondrial protein synthesis (mitobiogenesis) [6]: does not significantly inhibit mitobiogenesis |
